Measurements: patent US8455469B2, “Use of norgestimate as a selective inhibitor of TRPC3, TRPC6 and TRPC7 ion channels” (Sanofi, priority 2007, dated 2013)

Columns and labels:
[1] = molecular target: T1, TRPC5 (Homo sapiens, UniProt Q9UL62); test: Whole-cell patch clamp, AlF4- activated TRPC5 HEK293 cells; type: cell-based; conditions: 10 μM 2-APB, used for background calculation
T1 construct: expressed in transfected cells; host or cells: HEK293 FITR (inducible expression)
T1 sequence (Q9UL62 1-973): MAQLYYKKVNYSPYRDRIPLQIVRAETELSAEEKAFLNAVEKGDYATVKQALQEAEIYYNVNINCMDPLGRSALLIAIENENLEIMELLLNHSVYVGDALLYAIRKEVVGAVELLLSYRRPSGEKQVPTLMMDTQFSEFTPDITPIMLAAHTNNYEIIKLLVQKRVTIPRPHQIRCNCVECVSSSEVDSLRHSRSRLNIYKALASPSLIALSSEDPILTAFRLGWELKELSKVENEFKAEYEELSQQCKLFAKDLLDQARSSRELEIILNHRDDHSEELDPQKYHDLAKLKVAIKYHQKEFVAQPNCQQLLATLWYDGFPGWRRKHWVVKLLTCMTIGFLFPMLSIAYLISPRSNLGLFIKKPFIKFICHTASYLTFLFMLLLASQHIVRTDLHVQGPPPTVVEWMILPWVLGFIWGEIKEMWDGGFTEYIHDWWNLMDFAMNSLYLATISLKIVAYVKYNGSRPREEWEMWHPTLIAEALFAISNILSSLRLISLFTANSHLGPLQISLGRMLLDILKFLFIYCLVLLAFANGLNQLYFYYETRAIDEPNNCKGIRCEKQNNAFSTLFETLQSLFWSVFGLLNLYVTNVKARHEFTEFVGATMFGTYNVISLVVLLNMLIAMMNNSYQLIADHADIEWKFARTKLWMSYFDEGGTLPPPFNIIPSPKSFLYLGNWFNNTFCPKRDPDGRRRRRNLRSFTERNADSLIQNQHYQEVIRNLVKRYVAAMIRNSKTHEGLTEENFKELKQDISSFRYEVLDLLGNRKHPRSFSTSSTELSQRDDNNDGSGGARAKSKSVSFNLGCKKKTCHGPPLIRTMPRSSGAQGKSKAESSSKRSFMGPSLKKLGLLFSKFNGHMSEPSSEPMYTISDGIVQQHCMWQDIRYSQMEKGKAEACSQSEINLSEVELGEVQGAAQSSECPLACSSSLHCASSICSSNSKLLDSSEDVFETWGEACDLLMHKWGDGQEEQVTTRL
Procedure: Channels were indirectly excited with the same stimulus for better comparability of the norgestimate effect. Aluminium tetrafluoride (AIF^4−) applied intracellularly via the patch pipette activates G-proteins by mimicking GTP (Sternweis & Gilman, 1982; Bigay et al., 1987).
Since these channels are potentiated by micromolar La^3+ concentrations (Jung et al., 2003), 2-aminoethoxydiphenyl borate (2-APB), a characterized TRPC5 blocker (Xu et al., 2005) was used instead.
Effect of 10 μM norgestimate (NG) on whole-cell currents evoked by AlF4^− infusion into induced TRPC6— (A) and TRPC5 HEK 293 (B) cells. Whole cell currents recorded at −70 mV (left panels) and the corresponding current-voltage (I-V) relationships are shown (right panels). […] The curves were obtained during voltage ramps from −100 to +80 mV. (C) Statistical analysis of the norgestimate effect on TRPC5— and TRPC6-mediated currents.

[2] = molecular target: T2, TRPC6 (Homo sapiens, UniProt Q9Y210); test: Whole-cell patch clamp, AlF4- activated TRPC6 HEK293 cells; type: cell-based; conditions: 10 μM La3+, used for background calculation
T2 construct: expressed in transfected cells; host or cells: HEK293 (inducible expression)
T2 sequence (Q9Y210 1-931): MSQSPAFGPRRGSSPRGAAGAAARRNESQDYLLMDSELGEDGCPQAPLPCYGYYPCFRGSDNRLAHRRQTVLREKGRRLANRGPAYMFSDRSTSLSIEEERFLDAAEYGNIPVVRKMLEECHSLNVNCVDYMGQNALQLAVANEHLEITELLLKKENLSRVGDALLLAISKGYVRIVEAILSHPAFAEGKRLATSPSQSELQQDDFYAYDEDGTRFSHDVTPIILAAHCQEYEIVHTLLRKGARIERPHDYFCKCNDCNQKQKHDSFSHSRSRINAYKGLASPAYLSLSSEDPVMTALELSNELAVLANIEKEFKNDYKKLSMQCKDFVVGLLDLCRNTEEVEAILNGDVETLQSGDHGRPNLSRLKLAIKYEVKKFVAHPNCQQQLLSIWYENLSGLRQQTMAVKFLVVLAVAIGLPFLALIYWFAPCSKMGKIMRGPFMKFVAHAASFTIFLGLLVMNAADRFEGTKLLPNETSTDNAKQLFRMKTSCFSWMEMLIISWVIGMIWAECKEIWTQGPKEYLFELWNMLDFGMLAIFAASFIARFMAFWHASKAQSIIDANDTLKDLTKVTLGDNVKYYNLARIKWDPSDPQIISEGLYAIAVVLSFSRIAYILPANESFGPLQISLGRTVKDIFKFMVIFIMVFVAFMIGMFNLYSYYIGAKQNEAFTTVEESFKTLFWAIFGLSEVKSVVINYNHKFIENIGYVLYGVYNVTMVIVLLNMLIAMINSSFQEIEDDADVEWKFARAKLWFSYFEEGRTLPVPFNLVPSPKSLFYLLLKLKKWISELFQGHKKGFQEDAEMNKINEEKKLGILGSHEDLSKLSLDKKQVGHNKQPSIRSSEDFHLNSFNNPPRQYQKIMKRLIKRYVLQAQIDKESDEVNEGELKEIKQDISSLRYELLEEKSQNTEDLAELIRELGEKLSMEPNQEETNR
Source text: Inhibition of TRPC6- and TRPC5-mediated Ca^2+ -influx by norgestimate monitored in fluorometric experiments with cell populations was validated and compared with whole-cell patch clamp recordings of single cells. Channels were indirectly excited with the same stimulus for better comparability of the norgestimate effect. Aluminium tetrafluoride (AIF^4−) applied intracellularly via the patch pipette activates G-proteins by mimicking GTP (Sternweis & Gilman, 1982; Bigay et al., 1987). Subsequently TRPC channels are stimulated and mediate non-specific cationic currents (FIG. 3 A, B) When 10 μM norgestimate were applied to activated TRPC6 channels, 89.9 ±3.1% (n=15) of the current measured at resting membrane potential was blocked. This inhibition was reversible as current amplitude increased after norgestimate wash out (FIG. 3 A).
Effect of 10 μM norgestimate (NG) on whole-cell currents evoked by AlF4^− infusion into induced TRPC6— (A) and TRPC5 HEK 293 (B) cells. Whole cell currents recorded at −70 mV (left panels) and the corresponding current-voltage (I-V) relationships are shown (right panels). […] The curves were obtained during voltage ramps from −100 to +80 mV. (C) Statistical analysis of the norgestimate effect on TRPC5— and TRPC6-mediated currents. 10 μM norgestimate inhibit 25.9±5.7% (n=20) of TRPC5-mediated currents and 89.9±3.1% (n=15) of TRPC6-mediated currents (P<0.001, Wilcoxon test, two-sided).

[3] = molecular target: T1, TRPC5; conditions: micromolar concentrations (Jung et al., 2003); cited from earlier work

Structure (SMILES) | block of TRPC5 channel [1] | block of TRPC6 current [2] | block of TRPC6 current ([2]; listed as La^3+) | effect of micromolar La3+ concentrations on TRPC5 channels [3]
NCCOB(c1ccccc1)c1ccccc1 [2-APB, 2-aminoethoxydiphenyl borate] | completely and reversibly blocked | – | – | –
[La] [lanthanum] | – | complete and reversible | completely blocked | potentiated
